Results on 14 molecules are retold here after US9663519B2, “Compounds useful as inhibitors of ATR kinase” (Vertex Pharmaceuticals Incorporated, priority 2013, dated 2017).

Experiment [1] relates to HCT116 colorectal cancer cells. In words: Cisplatin Sensitization Assay (96 h cell viability MTS). Type of experiment: cell-based. Particulars: Cisplatin sensitization value: concentration of compound required to reduce the IC50 of Cisplatin alone by at least 3-fold; HCT116, 96 h MTS. How it is done:
Compounds can be screened for their ability to sensitize HCT116 colorectal cancer cells to Cisplatin using a 96 h cell viability (MTS) assay. […] Compounds and Cisplatin are then both added simultaneously to the cell media in 2-fold serial dilutions from a top final concentration of 10 μM as a full matrix of concentrations in a final cell volume of 200 μl, and the cells are then incubated at 37° C. in 5% CO2. After 96 h, 40 μl of MTS reagent (Promega G358a) is added to each well and the cells are incubated for 1 h at 37° C. in 5% CO2. Finally, absorbance is measured at 490 nm using a SpectraMax Plus 384 reader (Molecular Devices) and the concentration of compound required to reduce the IC50 of Cisplatin alone by at least 3-fold (to 1 decimal place) can be reported.

A further experiment has as its target full-length ATR (Homo sapiens (Human), UniProt Q13535). In words: ATR Inhibition Assay (radioactive-phosphate incorporation). Type of experiment: biochemical. Particulars: Ki(app); 5 nM full-length ATR, 10 μM ATP, 25° C. As for the experimental part:
Compounds were screened for their ability to inhibit ATR kinase using a radioactive-phosphate incorporation assay. Assays were carried out in a mixture of 50 mM Tris/HCl (pH 7.5), 10 mM MgCl2 and 1 mM DTT. Final substrate concentrations were 10 μM [γ-33P]ATP (3 mCi 33P ATP/mmol ATP, Perkin Elmer) and 800 μM target peptide (ASELPASQPQPFSAKKK (SEQ. ID NO: 1)).
Assays were carried out at 25° C. in the presence of 5 nM full-length ATR. An assay stock buffer solution was prepared containing all of the reagents listed above, with the exception of ATP and the test compound of interest. 13.5 μL of the stock solution was placed in a 96 well plate followed by addition of 2 μL of DMSO stock containing serial dilutions of the test compound (typically starting from a final concentration of 15 μM with 3-fold serial dilutions) in duplicate (final DMSO concentration 7%). The plate was pre-incubated for 10 minutes at 25° C. and the reaction initiated by addition of 15 μL [γ-33P]ATP (final concentration 10 μM).
The reaction was stopped after […] by the addition of 30 μL 0.1M phosphoric acid containing 2 mM ATP. A multiscreen phosphocellulose filter 96-well plate (Millipore, Cat no. MAPHN0B50) was pretreated with 100 μL 0.2M phosphoric acid prior to the addition of 45 μL of the stopped assay mixture. The plate was washed with 5×200 μL 0.2M phosphoric acid. After drying, 100 μL Optiphase ‘SuperMix’ liquid scintillation cocktail (Perkin Elmer) was added to the well prior to scintillation counting (1450 Microbeta Liquid Scintillation Counter, Wallac).
After removing mean background values for all of the data points, Ki(app) data were calculated from non-linear regression analysis of the initial rate data using the Prism software package (GraphPad Prism version 3.0cx for Macintosh, GraphPad Software, San Diego Calif., USA).

Chain of full-length ATR (Q13535 whole entry): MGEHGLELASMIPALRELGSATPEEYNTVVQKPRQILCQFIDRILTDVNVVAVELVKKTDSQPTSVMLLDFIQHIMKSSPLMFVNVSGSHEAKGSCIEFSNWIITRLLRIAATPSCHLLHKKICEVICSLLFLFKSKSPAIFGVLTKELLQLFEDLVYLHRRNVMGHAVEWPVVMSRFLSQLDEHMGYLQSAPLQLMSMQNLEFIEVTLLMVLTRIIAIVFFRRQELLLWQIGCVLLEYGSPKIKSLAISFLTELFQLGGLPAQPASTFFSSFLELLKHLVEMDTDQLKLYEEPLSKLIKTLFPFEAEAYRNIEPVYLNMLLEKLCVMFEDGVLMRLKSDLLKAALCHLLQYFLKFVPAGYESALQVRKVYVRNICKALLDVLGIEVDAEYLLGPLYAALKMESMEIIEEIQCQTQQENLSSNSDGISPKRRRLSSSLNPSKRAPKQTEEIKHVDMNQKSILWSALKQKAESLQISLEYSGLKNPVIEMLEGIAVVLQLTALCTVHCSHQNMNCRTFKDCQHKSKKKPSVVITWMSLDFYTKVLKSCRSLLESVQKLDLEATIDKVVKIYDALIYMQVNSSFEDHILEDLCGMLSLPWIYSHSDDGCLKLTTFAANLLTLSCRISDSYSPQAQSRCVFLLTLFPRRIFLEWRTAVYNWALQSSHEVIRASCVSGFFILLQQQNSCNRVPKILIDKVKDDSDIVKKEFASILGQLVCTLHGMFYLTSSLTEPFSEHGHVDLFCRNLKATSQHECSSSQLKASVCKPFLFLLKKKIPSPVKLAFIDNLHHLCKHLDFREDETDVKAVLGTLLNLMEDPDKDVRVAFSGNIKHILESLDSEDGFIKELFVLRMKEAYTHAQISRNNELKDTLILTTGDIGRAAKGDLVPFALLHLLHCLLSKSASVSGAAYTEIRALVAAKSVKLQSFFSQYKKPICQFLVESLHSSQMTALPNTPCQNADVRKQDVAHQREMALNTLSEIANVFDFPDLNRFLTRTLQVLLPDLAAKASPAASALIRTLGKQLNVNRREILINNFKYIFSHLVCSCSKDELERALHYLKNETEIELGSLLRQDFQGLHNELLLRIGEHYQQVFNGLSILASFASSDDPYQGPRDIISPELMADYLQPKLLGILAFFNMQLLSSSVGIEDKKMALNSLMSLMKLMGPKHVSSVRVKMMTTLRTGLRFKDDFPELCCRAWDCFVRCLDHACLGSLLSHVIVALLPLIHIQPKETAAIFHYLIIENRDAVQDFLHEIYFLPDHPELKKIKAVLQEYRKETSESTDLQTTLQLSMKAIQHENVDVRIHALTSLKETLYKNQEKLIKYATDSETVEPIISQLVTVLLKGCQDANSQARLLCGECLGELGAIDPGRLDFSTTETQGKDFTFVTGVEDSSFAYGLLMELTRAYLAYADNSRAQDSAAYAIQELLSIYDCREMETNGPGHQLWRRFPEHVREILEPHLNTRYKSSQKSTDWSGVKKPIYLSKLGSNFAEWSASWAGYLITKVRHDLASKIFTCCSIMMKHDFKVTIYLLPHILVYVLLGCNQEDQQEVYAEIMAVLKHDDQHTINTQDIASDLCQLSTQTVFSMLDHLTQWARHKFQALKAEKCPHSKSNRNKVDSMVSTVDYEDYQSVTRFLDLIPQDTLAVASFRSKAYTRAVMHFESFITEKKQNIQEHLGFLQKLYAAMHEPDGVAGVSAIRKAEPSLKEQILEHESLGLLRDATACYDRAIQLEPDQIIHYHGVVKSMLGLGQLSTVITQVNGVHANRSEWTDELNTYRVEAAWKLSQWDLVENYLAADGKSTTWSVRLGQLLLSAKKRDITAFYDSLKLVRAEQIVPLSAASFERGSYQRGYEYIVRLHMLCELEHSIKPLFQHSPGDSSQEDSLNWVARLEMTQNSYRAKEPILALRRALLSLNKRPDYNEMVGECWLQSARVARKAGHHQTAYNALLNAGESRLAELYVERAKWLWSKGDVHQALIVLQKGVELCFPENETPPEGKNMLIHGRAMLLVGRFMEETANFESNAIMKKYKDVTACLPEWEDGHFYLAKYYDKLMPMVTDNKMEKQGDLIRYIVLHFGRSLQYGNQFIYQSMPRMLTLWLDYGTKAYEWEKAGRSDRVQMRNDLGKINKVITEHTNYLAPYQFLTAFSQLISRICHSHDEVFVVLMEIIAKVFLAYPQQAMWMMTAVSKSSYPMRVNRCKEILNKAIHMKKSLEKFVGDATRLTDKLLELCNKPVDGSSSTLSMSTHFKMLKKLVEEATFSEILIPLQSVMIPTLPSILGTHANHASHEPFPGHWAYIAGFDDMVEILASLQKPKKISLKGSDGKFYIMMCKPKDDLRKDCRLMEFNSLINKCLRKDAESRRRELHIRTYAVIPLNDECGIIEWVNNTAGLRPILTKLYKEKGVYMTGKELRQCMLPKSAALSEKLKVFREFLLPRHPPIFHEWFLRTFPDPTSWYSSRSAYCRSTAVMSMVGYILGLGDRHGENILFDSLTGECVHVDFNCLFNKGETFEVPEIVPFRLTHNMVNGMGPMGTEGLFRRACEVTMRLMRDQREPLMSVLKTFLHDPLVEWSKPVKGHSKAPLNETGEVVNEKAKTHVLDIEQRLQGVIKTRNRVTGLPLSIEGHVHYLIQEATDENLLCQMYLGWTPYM

With `Cc1ccncc1NC(=O)c1c(N)nn2cc3c(nc12)CCNC3` [Compound I-1, 2-amino-N-(4-methylpyridin-3-yl)-5,6,7,8-tetrahydropyrazolo[1,5-a]pyrido[4,3-d]pyrimidine-3-carboxamide], the “Synergy with Cisplatin” value in experiment [1] is reported as “++ (Cisplatin sensitization value >0.02 μM but <0.2 μM)”. On full-length ATR, the Ki fell in the range of 10 to 1000 nM.

For `Cc1nsc(NC(=O)c2c(N)nn3cc4c(nc23)CCN(C2COC2)C4)c1C1CC1` [Compound I-33, 2-amino-N-(4-cyclopropyl-3-methylisothiazol-5-yl)-7-(oxetan-3-yl)-5,6,7,8-tetrahydropyrazolo[1,5-a]pyrido[4,3-d]pyrimidine-3-carboxamide], the “Synergy with Cisplatin” value in experiment [1] is “+++ (Cisplatin sensitization value of <0.02 μM)”. At full-length ATR, the Ki fell in the range of 10 to 1000 nM.

On to `CN1CCc2nc3c(C(=O)Nc4cnccc4OC4COC4)c(N)nn3cc2C1` [Compound I-14, 2-amino-7-methyl-N-(4-(oxetan-3-yloxy)pyridin-3-yl)-5,6,7,8-tetrahydropyrazolo[1,5-a]pyrido[4,3-d]pyrimidine-3-carboxamide], for which the “Synergy with Cisplatin” value in experiment [1] was “++ (Cisplatin sensitization value >0.02 μM but <0.2 μM)”. Also, the Ki at full-length ATR was 10 to 1000 nM.

As to `COc1ccncc1NC(=O)c1c(N)nn2cc3c(nc12)CCN(CCF)C3` [Compound I-19, 2-amino-7-(2-fluoroethyl)-N-(4-methoxypyridin-3-yl)-5,6,7,8-tetrahydropyrazolo[1,5-a]pyrido[4,3-d]pyrimidine-3-carboxamide], in experiment [1], the “Synergy with Cisplatin” value is “++ (Cisplatin sensitization value >0.02 μM but <0.2 μM)”. Further, on full-length ATR, the Ki fell in the range of 10 to 1000 nM.

For the molecule `CC(C)Oc1ncncc1NC(=O)c1c(N)nn2cc3c(nc12)CCN(C)C3` [Compound I-16, 2-amino-N-(4-isopropoxypyrimidin-5-yl)-7-methyl-5,6,7,8-tetrahydropyrazolo[1,5-a]pyrido[4,3-d]pyrimidine-3-carboxamide], the “Synergy with Cisplatin” value in experiment [1] is recorded as “++ (Cisplatin sensitization value >0.02 μM but <0.2 μM)”. Further, the Ki at full-length ATR was 10 to 1000 nM.

As for `CN1CCc2nc3c(C(=O)Nc4cncnc4C4CC4)c(N)nn3cc2C1` [Compound I-15, 2-amino-N-(4-cyclopropylpyrimidin-5-yl)-7-methyl-5,6,7,8-tetrahydropyrazolo[1,5-a]pyrido[4,3-d]pyrimidine-3-carboxamide], the “Synergy with Cisplatin” value in experiment [1] was “++ (Cisplatin sensitization value >0.02 μM but <0.2 μM)”. The Ki at full-length ATR is 10 to 1000 nM.

Turning to `Nc1nn2cc3c(nc2c1C(=O)Nc1cnccc1OCC(F)(F)F)CCNC3` [Compound I-4, 2-amino-N-(4-(2,2,2-trifluoroethoxy)pyridin-3-yl)-5,6,7,8-tetrahydropyrazolo[1,5-a]pyrido[4,3-d]pyrimidine-3-carboxamide], in experiment [1], the “Synergy with Cisplatin” value is given as “+++ (Cisplatin sensitization value of <0.02 μM)”. Moreover, on full-length ATR, the Ki lay within 10 to 1000 nM.

Take `COc1ncncc1NC(=O)c1c(N)nn2cc3c(nc12)CCN(C1COC1)C3` [Compound I-27, 2-amino-N-(4-methoxypyrimidin-5-yl)-7-(oxetan-3-yl)-5,6,7,8-tetrahydropyrazolo[1,5-a]pyrido[4,3-d]pyrimidine-3-carboxamide]: in experiment [1], the “Synergy with Cisplatin” value was “++ (Cisplatin sensitization value >0.02 μM but <0.2 μM)”. For the same molecule, the Ki on full-length ATR fell in the range of 10 to 1000 nM.

As for `COc1cc(Cl)ncc1NC(=O)c1c(N)nn2cc3c(nc12)CCNC3` [Compound I-6, 2-amino-N-(6-chloro-4-methoxypyridin-3-yl)-5,6,7,8-tetrahydropyrazolo[1,5-a]pyrido[4,3-d]pyrimidine-3-carboxamide], the “Synergy with Cisplatin” value in experiment [1] is listed as “++ (Cisplatin sensitization value >0.02 μM but <0.2 μM)”. In addition, the Ki on full-length ATR was 10 to 1000 nM.

`CN1CCc2nc3c(C(=O)Nc4cnccc4OCC(F)(F)F)c(N)nn3cc2C1` [Compound I-30, 2-amino-7-methyl-N-(4-(2,2,2-trifluoroethoxy)pyridin-3-yl)-5,6,7,8-tetrahydropyrazolo[1,5-a]pyrido[4,3-d]pyrimidine-3-carboxamide]: in experiment [1], the “Synergy with Cisplatin” value is “+++ (Cisplatin sensitization value of <0.02 μM)”. For the same molecule, the Ki on full-length ATR is 10 to 1000 nM.

As to `Nc1nn2cc3c(nc2c1C(=O)Nc1cncnc1C1CC1)CCN(C1COC1)C3` [Compound I-26, 2-amino-N-(4-cyclopropylpyrimidin-5-yl)-7-(oxetan-3-yl)-5,6,7,8-tetrahydropyrazolo[1,5-a]pyrido[4,3-d]pyrimidine-3-carboxamide], the “Synergy with Cisplatin” value in experiment [1] is given as “+ (Cisplatin sensitization value >0.2 μM but <5 μM)”. Also, on full-length ATR, the Ki fell in the range of 1000 to 5000 nM.

For the molecule `COc1ccncc1NC(=O)c1c(N)nn2cc3c(nc12)C(C)(C)CNC3` [Compound I-31, 2-amino-N-(4-methoxypyridin-3-yl)-5,5-dimethyl-5,6,7,8-tetrahydropyrazolo[1,5-a]pyrido[4,3-d]pyrimidine-3-carboxamide], the “Synergy with Cisplatin” value in experiment [1] is on record as “++ (Cisplatin sensitization value >0.02 μM but <0.2 μM)”. For the same molecule, at full-length ATR, the Ki was 10 to 1000 nM.

Turning to `CC(C)Oc1ccncc1NC(=O)c1c(N)nn2cc3c(nc12)CCNC3` [Compound I-3, 2-amino-N-(4-isopropoxypyridin-3-yl)-5,6,7,8-tetrahydropyrazolo[1,5-a]pyrido[4,3-d]pyrimidine-3-carboxamide], the “Synergy with Cisplatin” value in experiment [1] is “+++ (Cisplatin sensitization value of <0.02 μM)”. For the same molecule, on full-length ATR, the Ki lay within 10 to 1000 nM.

As for `Nc1nn2cc3c(nc2c1C(=O)Nc1cnccc1OC1CCOCC1)CCNC3` [Compound I-8, 2-amino-N-(4-((tetrahydro-2H-pyran-4-yl)oxy)pyridin-3-yl)-5,6,7,8-tetrahydropyrazolo[1,5-a]pyrido[4,3-d]pyrimidine-3-carboxamide], the “Synergy with Cisplatin” value in experiment [1] is “++ (Cisplatin sensitization value >0.02 μM but <0.2 μM)”. The Ki on full-length ATR is 10 to 1000 nM.
